Earlier results, collected in US20210137108A1, “REDUCED INHALATION HAZARD OF QUATERNARY AMMONIUM COMPOUNDS-PH DRIVEN PHYSIOLOGICAL RESPONSE” (priority 2016, published 2021).
Like-named read-outs stand apart in the source and are kept apart here.

Key:
rats = system: rats; set-up: key: L is lethal dose; S indicates survival
[1] = rats
[2] = system: lung biomarkers, Clara cells, blood-air barrier; details: inhalation exposure at 35 mg per cubic meter

Compound | lethal dose / survival (rats; i.a., dose 15-20 mg/kg) | lethal dose / survival (rats; i.v., dose 15-20 mg/kg) | lethal dose / survival (rats; p.o., dose 250 mg/kg) | lethal dose / survival (rats; p.o., dose 1250 mg/kg) | pKa | lethal dose / survival (rats; i.a., dose 100-150 mg/kg) | lethal dose / survival (rats; i.v., dose 100-150 mg/kg) | concentrations in the lungs and kidneys compared to levels observed in the liver and tissue [1] | Clara cells and CC16 protein concentration [2] | changes in lung biomarker levels [2] | inflammatory response and blood-air barrier [2] | influx of proteins from blood vessels and alveolar space [2]
N=C(NCCCCCCNC(=N)NC(=N)Nc1ccc(Cl)cc1)NC(=N)Nc1ccc(Cl)cc1.O=C(O)[C@H](O)[C@@H](O)[C@H](O)[C@H](O)CO.O=C(O)[C@H](O)[C@@H](O)[C@H](O)[C@H](O)CO [Chlorhexidine gluconate] | L | L | S | S and (poor) |  |  |  |  |  |  |  | 
NS(=O)(=O)O [Sulfamic Acid] |  |  |  |  | 1 |  |  |  |  |  |  | 
Alkyldiaminoethylglycine | S | S | S | L |  | L | L |  |  |  |  | 
Benzalkonium Chloride | L | L | S | L |  |  |  | several times higher | Damage to Clara cells and a reduced concentration in CC16 protein | significant changes | strong inflammatory response and damage to the blood-air barrier | massive influx of proteins
Soidum dodecylbenzensulfonate | S | S | S | L |  | L | L |  |  |  |  | 
